The assay has as its system heterotopic heart-transplanted model mice. Nature of the assay: Heterotopic homologous heart transplantation in mice (B10 donors to CBA recipients), heart graft beating/survival. In kind it is in vivo. As to conditions: group (b), n = 5: both donor and recipient mice received ALA (100 mg/kg) alone. The source says:
B10 mice (male, 10 weeks old on average, body weight: 20 to 25 g) were used as donors for the hearts to be transplanted. CBA mice (male, 10 weeks old on average, body weight: 20 to 25 g) were used as recipients to receive the hearts taken out of the donors. The procedures of the heterotopic homologous heart transplantation in mice followed the description of Experimental Manual of Organ Transplantation (Shujunsha Co., Ltd.), Paragraph 1, Part 2, 2-1-5 “Heterotopic Heart Transplantation in Mice”. Hereinafter, the procedures will be summarized.
The thorax of each donor mouse was opened under anesthesia and sufficiently perfused using 1 mL of saline supplemented with cold heparin, followed by excision of the heart. The excised heart was preserved in saline supplemented with cold heparin. The abdomen of each recipient mouse was opened under anesthesia, and the heart excised from the donor mouse was transplanted into the abdominal vena cava to prepare heterotopic heart-transplanted model mice.
The heterotopic heart-transplanted model mice were divided into groups (1) to (4) with administration patterns shown in Table 1 below. An experiment was conducted on the oral administration of the agent for promoting graft survival of the present invention. […]

Molecules are shown by their SMILES.

Turning to `NCC(=O)CCC(=O)O` [ALA, 5-aminolevulinic acid], the “long-term beating of heart graft” value is reported as “seen in none of these individuals”.

(Values after US9901558B2, “Enhancer of survival of transplanted organ” (SBI Pharmaceuticals Co., Ltd., priority 2011, dated 2018).)
